Experimental data published in US8685992B2, “Histone deacetylase inhibitors based simultaneously on trisubstituted 1H-pyrroles and aromatic and heteroaromatic spacers” (Universidad del País Vasco, priority 2009, dated 2014).

Experiments:
[1] = system: LoVo; assay: Cancer cell growth inhibition, LoVo; type: cell-based, human; conditions: Homo sapiens, Colorectal Cancer, 72 h treatment
Method: (§1) Cell culture-based assays were used to evaluate the ability of compounds of the invention to inhibit cancer cell growth inhibition.
(§2) Cells were obtained from the American Type Culture Collection (ATCC). Cells were cultured at 37° C. with 5% CO2 in the appropriate growth medium (see table below), and harvested respectively during the logarithmic growth period and counted with hemocytometer. The cell viability was over 98% by trypan blue exclusion. Cell concentrations were adjusted between 5×10^4 and 2×10^5 cells/ml with respective medium.
(§3) Stock solutions of test compounds and positive drugs Doxorubicin (Zhejiang, Haizheng, China), Paclitaxel (Beijing, Xiehe, China), Vincristin (Shenzhen Wanle, China), 5-FU (Tianjin jinyaoanjisuan, China), Irinotecan (Jiangsu Hengrui, China) and Cisplatin Nanjing zhiyao, China) were prepared in dimethyl sulphoxide (DMSO) or PBS at 20 mM.
(§4) All treatments were performed in triplicate. 10 μl drug solution was added to each well and incubated for 72 hours. At the end of the incubation, 20 μl of the freshly prepared MTS/PMS mixture solution was added to each well and incubated for 4 hours at 37° C. in a humidified, 5% CO2 atmosphere. Absorbance was read at 490 nm using SpectraMAX Plus microplate spectrophotometer. […] In order to calculate IC50, a dose-responsive curve was fitted using nonlinear regression model with a sigmoidal dose response.

[2] = system: Hep3B; assay: Cancer cell growth inhibition, Hep3B; type: cell-based, human; conditions: Homo sapiens, Liver Cancer, 72 h treatment
Method: as §1, §2, §3, §4

[3] = system: DLD-1; assay: Cancer cell growth inhibition, DLD-1; type: cell-based, human; conditions: Homo sapiens; DLD-1, Colorectal Cancer, 72 h treatment
Method: as §1, §2, §3, §4

[4] = system: SK-OV-3; assay: Cancer cell growth inhibition, SK-OV-3; type: cell-based, human; conditions: Homo sapiens; SK-OV-3, Ovarian Cancer, 72 h treatment
Method: as §1, §2, §3, §4

[5] = biological target: Human HDAC6 (Homo sapiens (Human), UniProt Q9UBN7); assay: HDAC6 fluorogenic peptide deacetylation assay; type: biochemical; conditions: human HDAC6, 50 μM substrate, 30° C., 2 h; read-out: IC50 (nM) of enzyme activity HDAC6
[6] = system: U87MG; assay: Cancer cell growth inhibition, U87MG; type: cell-based, human; conditions: Homo sapiens, U-87 MG, Glioblastoma, 72 h treatment
Method: as §1, §2, §3, §4

[7] = system: SW480; assay: Cancer cell growth inhibition, SW480; type: cell-based, human; conditions: Homo sapiens; SW480, Colorectal Cancer, 72 h treatment
Method: as §1, §2, §3, §4

[8] = system: DU145; assay: Cancer cell growth inhibition, DU145; type: cell-based, human; conditions: Homo sapiens, DU-145; DU145, Prostate Cancer, 72 h treatment
Method: as §1, §2, §3, §4

[9] = system: SK-HEP-1; assay: Cancer cell growth inhibition, SK-HEP-1; type: cell-based; conditions: Homo sapiens, SK-HEP1; SK-HEP-1, Liver Cancer, 72 h treatment
Method: as §1, §2, §3, §4

[10] = system: SK-BR-3; assay: Cancer cell growth inhibition, SK-BR-3; type: cell-based, human; conditions: Homo sapiens; SK-BR-3, Breast Cancer, 72 h treatment
Method: as §1, §2, §3, §4

[11] = system: LNCaP; assay: Cancer cell growth inhibition, LNCaP; type: cell-based, human; conditions: Homo sapiens, Prostate Cancer, 72 h treatment
Method: as §1, §2, §3, §4

[12] = biological target: Human HDAC1 (Homo sapiens (Human), UniProt Q13547); assay: HDAC1 fluorogenic peptide deacetylation assay; type: biochemical; conditions: human HDAC1, 50 μM substrate, 30° C., 2 h; read-out: IC50 (nM) of enzyme activity HDAC1
[13] = system: MCG803; assay: Cancer cell growth inhibition, MCG803; type: cell-based, human; conditions: Homo sapiens; MCG803, Gastric Cancer, 72 h treatment
Method: as §1, §2, §3, §4

[14] = system: KB; assay: Cancer cell growth inhibition, KB; type: cell-based, human; conditions: Homo sapiens, Oral Cancer, 72 h treatment
Method: as §1, §2, §3, §4

[15] = system: A375; assay: Cancer cell growth inhibition, A375; type: cell-based, human; conditions: Homo sapiens, A-375; A375, Melanoma, 72 h treatment
Method: as §1, §2, §3, §4

[16] = system: HT-1080; assay: Cancer cell growth inhibition, HT-1080; type: cell-based; conditions: Homo sapiens; HT-1080, Fibrosarcoma, 72 h treatment
Method: as §1, §2, §3, §4

[17] = system: RPMI-8226; assay: Cancer cell growth inhibition, RPMI-8226; type: cell-based, human; conditions: Homo sapiens; RPMI-8226, Orthotopic Multiple Myeloma, 72 h treatment
Method: as §1, §2, §3, §4

[18] = biological target: Human HDAC2 (Homo sapiens (Human), UniProt Q92769); assay: HDAC2 fluorogenic peptide deacetylation assay; type: biochemical; conditions: human HDAC2, 50 μM substrate, 30° C., 2 h; read-out: IC50 (nM) of enzyme activity HDAC2
[19] = system: NCI-N87; assay: Cancer cell growth inhibition, NCI-N87; type: cell-based, human; conditions: Homo sapiens; NCI-N87, Gastric Cancer, 72 h treatment
Method: as §1, §2, §3, §4

[20] = system: Colo205; assay: Cancer cell growth inhibition, Colo205; type: cell-based; conditions: Homo sapiens, COLO 205; Colo205, Colorectal Cancer, 72 h treatment
Method: as §1, §2, §3, §4

[21] = system: NCI-H460; assay: Cancer cell growth inhibition, NCI-H460; type: cell-based, human; conditions: Homo sapiens; NCI-H460, Lung Cancer, 72 h treatment
Method: as §1, §2, §3, §4

[22] = system: SK-MEL-5; assay: Cancer cell growth inhibition, SK-MEL-5; type: cell-based, human; conditions: Homo sapiens; SK-MEL-5, Melanoma, 72 h treatment
Method: as §1, §2, §3, §4

[23] = system: 786-O; assay: Cancer cell growth inhibition, 786-O; type: cell-based, human; conditions: Homo sapiens, 786-0, Kindney Cancer, 72 h treatment
Method: as §1, §2, §3, §4

[24] = system: OVCAR3; assay: Cancer cell growth inhibition, OVCAR3; type: cell-based, human; conditions: Homo sapiens, OVCAR-3; OVCAR3, Ovarian Cancer, 72 h treatment
Method: as §1, §2, §3, §4

[25] = system: MCF-7-FL; assay: Cancer cell growth inhibition, MCF-7-FL; type: cell-based; conditions: Homo sapiens, Breast Cancer, 72 h treatment
Method: as §1, §2, §3, §4

[26] = system: K562; assay: Cancer cell growth inhibition, K562; type: cell-based, human; conditions: Homo sapiens; K562, CML, 72 h treatment
Method: as §1
Cells were obtained from the American Type Culture Collection (ATCC). Cells were cultured at 37° C. with 5% CO2 in the appropriate growth medium (see table below), and harvested respectively during the logarithmic growth period and counted with hemocytometer. […] Cell concentrations were adjusted between 5×10^4 and 2×10^5 cells/ml with respective medium.
as §3, §4

Chain of Human HDAC2 (Q92769 whole entry): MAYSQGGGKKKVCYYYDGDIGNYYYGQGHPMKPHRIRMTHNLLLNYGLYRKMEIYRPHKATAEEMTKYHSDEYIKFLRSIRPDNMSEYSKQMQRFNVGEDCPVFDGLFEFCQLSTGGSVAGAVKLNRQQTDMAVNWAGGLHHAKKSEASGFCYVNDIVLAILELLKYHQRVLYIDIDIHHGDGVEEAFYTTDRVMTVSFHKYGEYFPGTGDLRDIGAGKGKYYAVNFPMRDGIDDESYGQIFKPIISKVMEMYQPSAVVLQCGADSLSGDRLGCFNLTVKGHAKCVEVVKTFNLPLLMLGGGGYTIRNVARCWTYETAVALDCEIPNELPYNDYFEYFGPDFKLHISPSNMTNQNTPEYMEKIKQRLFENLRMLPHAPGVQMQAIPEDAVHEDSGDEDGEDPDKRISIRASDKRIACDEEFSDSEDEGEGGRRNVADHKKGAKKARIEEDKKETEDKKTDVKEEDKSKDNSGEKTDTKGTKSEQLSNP
Chain of Human HDAC1 (Q13547 whole entry): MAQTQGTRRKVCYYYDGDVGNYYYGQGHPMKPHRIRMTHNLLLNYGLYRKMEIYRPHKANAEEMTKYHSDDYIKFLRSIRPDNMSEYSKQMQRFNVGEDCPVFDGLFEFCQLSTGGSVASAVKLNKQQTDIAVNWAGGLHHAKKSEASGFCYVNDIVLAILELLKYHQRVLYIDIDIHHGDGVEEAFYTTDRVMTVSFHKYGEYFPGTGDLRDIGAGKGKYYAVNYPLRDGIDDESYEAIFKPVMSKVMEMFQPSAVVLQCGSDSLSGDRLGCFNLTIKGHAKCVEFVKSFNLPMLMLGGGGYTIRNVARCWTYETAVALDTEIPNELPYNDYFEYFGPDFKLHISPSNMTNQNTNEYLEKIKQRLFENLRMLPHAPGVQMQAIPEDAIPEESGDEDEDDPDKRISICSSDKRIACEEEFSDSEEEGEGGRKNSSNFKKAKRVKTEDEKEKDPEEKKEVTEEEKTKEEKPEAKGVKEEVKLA
Chain of Human HDAC6 (Q9UBN7 whole entry): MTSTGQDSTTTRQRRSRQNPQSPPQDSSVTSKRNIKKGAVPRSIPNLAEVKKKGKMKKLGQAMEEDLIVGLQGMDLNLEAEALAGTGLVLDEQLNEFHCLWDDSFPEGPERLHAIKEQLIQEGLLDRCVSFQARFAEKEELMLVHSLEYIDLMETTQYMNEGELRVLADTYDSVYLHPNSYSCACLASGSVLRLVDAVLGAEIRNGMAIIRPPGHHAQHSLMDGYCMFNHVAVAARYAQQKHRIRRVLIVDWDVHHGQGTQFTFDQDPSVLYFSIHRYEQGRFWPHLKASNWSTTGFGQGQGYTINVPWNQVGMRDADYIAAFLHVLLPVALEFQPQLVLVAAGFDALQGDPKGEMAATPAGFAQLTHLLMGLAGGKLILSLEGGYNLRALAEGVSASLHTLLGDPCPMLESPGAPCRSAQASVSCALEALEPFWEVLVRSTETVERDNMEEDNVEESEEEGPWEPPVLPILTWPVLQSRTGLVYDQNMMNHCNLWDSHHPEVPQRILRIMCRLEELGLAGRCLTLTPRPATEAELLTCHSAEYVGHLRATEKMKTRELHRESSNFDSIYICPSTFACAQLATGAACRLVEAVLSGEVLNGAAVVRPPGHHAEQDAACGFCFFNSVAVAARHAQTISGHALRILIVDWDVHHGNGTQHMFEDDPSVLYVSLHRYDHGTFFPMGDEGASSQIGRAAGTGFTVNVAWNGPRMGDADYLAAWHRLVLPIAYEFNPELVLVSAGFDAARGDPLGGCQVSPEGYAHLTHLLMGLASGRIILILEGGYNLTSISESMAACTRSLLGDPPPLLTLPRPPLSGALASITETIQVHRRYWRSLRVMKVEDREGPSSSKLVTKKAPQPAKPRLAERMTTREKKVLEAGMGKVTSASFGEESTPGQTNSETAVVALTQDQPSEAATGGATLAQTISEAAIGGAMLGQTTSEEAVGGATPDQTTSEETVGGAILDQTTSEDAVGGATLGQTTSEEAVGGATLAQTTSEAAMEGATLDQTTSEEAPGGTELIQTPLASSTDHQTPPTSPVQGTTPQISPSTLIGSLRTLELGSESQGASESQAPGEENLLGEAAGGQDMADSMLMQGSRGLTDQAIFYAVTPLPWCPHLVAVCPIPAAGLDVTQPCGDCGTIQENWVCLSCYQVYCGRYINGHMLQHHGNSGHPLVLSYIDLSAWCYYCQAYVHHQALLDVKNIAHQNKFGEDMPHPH

SMILES | IC50 [1] [nM] | IC50 [2] [nM] | IC50 [3] [nM] | IC50 [4] [nM] | IC50 [6] [nM] | IC50 [8] [nM] | IC50 [9] [nM] | IC50 [10] [nM] | IC50 [11] [nM] | IC50 [12] [nM] | IC50 [13] [nM] | IC50 [14] [nM] | IC50 [15] [nM] | IC50 [16] [nM] | IC50 [17] [nM] | IC50 [18] [nM] | IC50 [20] [nM] | IC50 [21] [nM] | IC50 [22] [nM] | IC50 [23] [nM] | other results
COc1ccc(-c2cc(-c3ccoc3)c(C(=O)NCc3ccc(C(=O)NO)cc3)[nH]2)cc1 [Example 27, 3-(3-furyl)-N-{4-[(hydroxyamino)carbonyl]benzyl}-5-(4-methoxyphenyl)-1H-pyrrole-2-carboxamide] | 430 | 614 | 592 | 1670 | 1390 | 338 | 1100 | 771 | 366 | 71 | 738 | 315 | 1040 | 160 | 58.6 | 157 | 248 | 1680 | 256 | 1910 | IC50 [5]: 1.6 nM; IC50 [7]: 574 nM; IC50 [19]: 153 nM; IC50 [24]: 904 nM
O=C(NO)c1ccc(CNC(=O)c2[nH]c(-c3ccc(O)cc3)cc2-c2ccoc2)cc1 [Example 15, 3-(3-furyl)-N-{4-[(hydroxyamino)carbonyl]benzyl}-5-(4-hydroxyphenyl)-1H-pyrrole-2-carboxamide] | 150 | 859 | 4480 | 651 | 6560 | 460 | 450 | 453 | 1720 | 49.9 | 2010 | 184 | 3680 | 594 | 426 | 144 | 365 | 6290 | 292 | 2290 | IC50 [25]: 3310 nM; IC50 [24]: 8050 nM; IC50 [26]: 739 nM
COc1ccc(-c2cc(-c3ccsc3)c(C(=O)NCc3ccc(C(=O)NO)cc3)[nH]2)cc1 [Example 28, N-{4-[(hydroxyamino)carbonyl]benzyl}-5-(4-methoxyphenyl)-3-(3-thienyl)-1H-pyrrole-2-carboxamide] | 3850 | 4270 | 3220 | 8430 | 8960 | 1860 | 9930 | 4080 | 3070 | 184 | 6080 | 3420 | 4270 | 1090 | 462 | 392 | 3100 | 12100 | 3790 | 10000 | IC50 [5]: 2 nM; IC50 [7]: 2380 nM; IC50 [19]: 1480 nM; IC50 [24]: 4760 nM; IC50 [26]: 1370 nM
O=C(NO)c1ccc(CNC(=O)c2[nH]c(-c3ccoc3)cc2-c2ccc(O)cc2)cc1 [Example 9, 5-(3-furyl)-N-{4-[(hydroxyamino)carbonyl]benzyl}-3-(4-hydroxyphenyl)-1H-pyrrole-2-carboxamide] | 1910 | 3180 | 6870 | 4170 | 10800 | 4510 | 4470 | 1500 | 9910 | 378 | 1100 | 2960 | 10200 | 1840 | 1310 | 909 | 4910 | 10500 | 3340 | 13400 | IC50 [5]: 6.8 nM; IC50 [25]: 7720 nM; IC50 [24]: 9990 nM; IC50 [26]: 1040 nM
O=C(NO)c1ccc(CNC(=O)c2[nH]c(-c3ccc(O)cc3)cc2-c2ccsc2)cc1 [Example 14, N-{4-[(hydroxyamino)carbonyl]benzyl}-5-(4-hydroxyphenyl)-3-(3-thienyl)-1H-pyrrole-2-carboxamide] | 498 | 2700 | 24500 | 1630 | 9350 | 1520 | 1750 | 334 | 4110 | 84.2 | 3270 | 702 | 7700 | 1530 | 336 | 318 | 1560 | 26700 | 851 | 8660 | IC50 [5]: 0.44 nM; melting point: 121 to 122 °C; IC50 [25]: 6640 nM; IC50 [24]: 25200 nM; IC50 [26]: 1300 nM
